From patent US8557800B2, “Sphingosine kinase inhibitors” (Apogee Biotechnology Corporation, priority 2005, dated 2013)

Experiments:
[1] = test system: MCF-7 human breast adenocarcinoma cells; test: Cytotoxicity, SRB binding assay; type: cell-based; conditions: MCF7, inhibition of cell proliferation, 48 h, read-out: MCF-7 IC50
Procedure, shortened: (§1)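 Cells exposed to varying compound doses for 48 h, then survival measured by sulforhodamine B staining. IC50 is the concentration giving 50% proliferation inhibition, in μM, as mean±sd of replicate trials.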

[2] = test system: MCF-10A non-transformed human breast epithelial cells; test: Cytotoxicity, SRB binding assay; type: cell-based; conditions: inhibition of cell proliferation, 48 h, read-out: MCF-10A IC50
Procedure, shortened: as §1

[3] = test system: recombinant human SK; test: Inhibition of recombinant human SK, LC/MS/MS assay; type: biochemical; conditions: 6 μg/ml compound
Procedure, shortened: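 Enzyme incubated with unlabeled sphingosine and ATP (1 mM, as in the radiometric format) for 30 min, then stopped and extracted with acetonitrile. S1P quantified by C8 reverse-phase HPLC–MS/MS against C17 sphingosine and C17 S1P internal standards using calibration curves.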

SMILES | IC50 [1] | IC50 [2] | Recombinant SK (% inhibition) [3]
O=C(Nc1cccc(CO)c1)C12CC3CC(C1)CC(c1ccc(Cl)cc1)(C3)C2 [Compound 9, 3-(4-Chloro-phenyl)-adamantane-1-carboxylic acid (3-hydroxymethyl-phenyl)-amide] | 9 µM | 17 µM | 84%
O=C(Nc1ccc(O)cc1O)C12CC3CC(C1)CC(c1ccc(Cl)cc1)(C3)C2 [Compound 8, 3-(4-Chloro-phenyl)-adamantane-1-carboxylic acid (2,4-dihydroxy-phenyl)-amide] | 47 µM | 94 µM | 49%
CC(C)(C)c1ccc(CNC(=O)C23CC4CC(C2)CC(c2ccc(Cl)cc2)(C4)C3)cc1 [Compound 13, 3-(4-Chloro-phenyl)-adamantane-1-carboxylic acid 4-tert-butyl-benzylamide] | 51 µM | 115 µM | 78%
N#CCc1ccc(NC(=O)C23CC4CC(C2)CC(c2ccc(Cl)cc2)(C4)C3)cc1 [Compound 11, 3-(4-Chloro-phenyl)-adamantane-1-carboxylic acid (4-cyanomethyl-phenyl)-amide] | 87 µM | 87 µM | 17%
O=C(Nc1nc(-c2ccc(Cl)cc2)cs1)C12CC3CC(C1)CC(c1ccc(Cl)cc1)(C3)C2 [Compound 70, 3-(4-Chloro-phenyl)-adamantane-1-carboxylic acid [4-(4-chloro-phenyl)-thiazol-2-yl]-amide] | 7 µM | 103 µM | 33%
O=C(Nc1ccccc1)C12CC3CC(C1)CC(c1ccc(Cl)cc1)(C3)C2 [Compound 4, 3-(4-Chloro-phenyl)-adamantane-1-carboxylic acid phenylamide] | 72 µM | 137 µM | 44%
O=C(NCCc1ccc(O)cc1)C12CC3CC(C1)CC(c1ccc(Cl)cc1)(C3)C2 [Compound 40, 3-(4-Chloro-phenyl)-adamantane-1-carboxylic acid [2-(4-hydroxy-phenyl)-ethyl]-amide] | 6 µM | 37 µM | 100%
CC(NC(=O)C12CC3CC(C1)CC(c1ccc(Cl)cc1)(C3)C2)c1ccc(Br)cc1 (stereo not drawn) [Compound 29, 3-(4-Chloro-phenyl)-adamantane-1-carboxylic acid [1-(4-bromo-phenyl)-ethyl]-amide] | 7 µM | 106 µM | 55%
Cc1cc2cc(NC(=O)C34CC5CC(C3)CC(c3ccc(Cl)cc3)(C5)C4)ccc2[nH]1 [Compound 66, 3-(4-Chloro-phenyl)-adamantane-1-carboxylic acid (2-methyl-1H-indol-5-yl)-amide] | 19 µM | 53 µM | 92%
O=C(NCc1ccccc1)C12CC3CC(C1)CC(c1ccc(Cl)cc1)(C3)C2 [Compound 12, 3-(4-Chloro-phenyl)-adamantane-1-carboxylic acid benzylamide] | 11 µM | 99 µM | 36%
O=C(Nc1nc2ccccc2s1)C12CC3CC(C1)CC(c1ccc(Cl)cc1)(C3)C2 [Compound 71, 3-(4-Chloro-phenyl)-adamantane-1-carboxylic acid benzothiazol-2-ylamide] | 21 µM | 118 µM | 27%
CCn1c2ccccc2c2cc(NC(C)C34CC5CC(CC(c6ccc(Cl)cc6)(C5)C3)C4)ccc21 (stereo not drawn) [Compound 114, {1-[3-(4-Chloro-phenyl)-adamantan-1-yl]-ethyl}-(9-ethyl-9H-carbazol-3-yl)-amine] | 55 µM | 9 µM | 33%
Clc1ccc(C23CC4CC(CC(CNCCN5CCOCC5)(C4)C2)C3)cc1 [Compound 87, [3-(4-Chloro-phenyl)-adamantan-1-ylmethyl]-(2-morpholin-4-yl-ethyl)-amine] | 38 µM | 33 µM | 75%
